Read-outs that look alike come from different tables or passages of the source.
Experiments:
[1] = test system: Kunming mice; test: Median effective dose (ED50) determination, acetic acid-induced writhing; format: in vivo; details: for ED50: subcutaneous, writhing inhibition, Probit regression; for analgesic activity / ED50 compared with lappaconitine (in words): comment on Table 2
Experimental: (§1) 10 mice were randomly selected, male:female=1:1, were placed in independent cages. Each mouse was injected subcutaneously with the sample solution mentioned above at a dose of 0.1 mL/10 g body weight. After 15 min, a 0.7% acetic acid solution was intraperitoneally injected. The number of writhing reactions in each mouse within 15 minutes was recorded. The group that the mice were injected with physiological saline subcutaneously was the blank group; the group that the mice were injected with the sample to be tested was the experimental group; and the group that the mice were injected with lappaconitine was the positive group. The analgesic activity was represented by a percentage of the reduced number of writhing compared to the blank group (writhing inhibition rate), which were specifically as follows: writhing inhibition rate (analgesic activity)=(average number of writhing times in the blank group-average number of writhing times in the experimental group)/average number of writhing times in the blank group×100%.
The sample to be tested was dissolved with 0.1 mol/L HCl according to the amount of the substance ratio of 1:1, and diluted with physiological saline according to the proportional series to obtain at least 5 groups with different dose concentrations. The writhing inhibition rate of each dose group was tested according to the acetic acid-induced writhing method mentioned above. The obtained does-writhing inhibition data was entered into the statistical product and service solutions (SPSS) software (version 17.2), and the ED50 of the sample to be tested was calculated through the Probit regression method.

[2] = test system: Kunming mice; test: Analgesic activity by acetic acid-induced writhing method; format: in vivo; details: for inhibition in vivo at 10 mg/kg: Mus musculus, sc, read-out: Analgesia rate ± SEM (%); for analgesic activity (in words, Table 1): comment on Table 1
Experimental: The experimental animals were Kunming mice (male:female=1:1), weighed 22±2 g, which were provided by Chengdu dossy experimental animals Co., ltd., China. The mice were kept in the animal room of the School of Life Science and Engineering, Southwest Jiaotong University, where the animal room was set at a temperature of 23±2° C., a humidity of 55±5% and a photoperiod of 16:8 h (L:D). Before the experiment, the mice were freely fed for 2-3 days with water and feed to adapt to the new environment. Then, the mice were treated by water fasting for 12 h. 10 animals were allocated to each group to ensure that there are at least 6 sets of valid data in each group. The animal experiments were carried out in strict accordance with the national regulations on the management of experimental animals.
The compounds prepared in the examples provided herein and the positive control lappaconitine were all dissolved with 0.1 mol/L HCl according to the amount of the substance ratio of 1:1, and then diluted with physiological saline to a concentration to be determined. The samples to be tested were the compounds prepared the examples provided herein; the positive control was lappaconitine; and the blank control was physiological saline containing 0.1 mol/L HCl.
The animals in the control groups were subjected to the same treatment as those in the experimental group except that the samples to be test were replaced with physiological saline.
as §1

[3] = Median lethal dose (LD50) determination; format: in vivo, Kunming mice; details: both sexes, Kunming, mouse, in vivo, sc; subcutaneous, survival within 24 h, Probit regression
Experimental: (§2) The sample to be tested was dissolved with 0.1 mol/L HCl according to the amount of the substance ratio of 1:1, and diluted with physiological saline according to the required concentration. 10 mice in each group were randomly selected, half of which are male and half of which were female, and were placed in independent cages. Each mouse was injected subcutaneously with different sample solutions to be tested according to a dose of 0.1 mL/10 g body weight. In the preliminary toxicity experiment, the measured concentration was 100 mg/kg, and then based on the survival rate of the experimental animals in the preliminary experiment, the sample to be tested was set to at least 5 groups with different concentration dose according to the proportional series. The survival rate of mice within 24 h was recorded. The obtained dose-survival rate data was input into the SPSS software (version 17.2), and the LD50 of the sample was calculated according to the Probit regression method.

[4] = test system: Kunming mice; test: Median lethal dose (LD50) determination; format: in vivo
Experimental: as §2

[5] = Mus musculus, sc, read-out: ED50
[6] = Dosing concentration 10 mg/kg, subcutaneous, 15 min before i.p. 0.7% acetic acid, writhing inhibition vs blank group

Question: For `CCN1C[C@]2(OC(=O)c3ccccc3NS(=O)(=O)c3ccccc3)CC[C@H](OC)C34C2CC([C@@H]13)[C@@]1(O)C[C@H](OC)[C@H]2CC4[C@]1(O)[C@H]2OC` (some centres unmarked) [Compound 1], which ED50 [1, 5] is on record?
Answer: 6.1 mg/kg

Question: What about the “analgesic activity / ED50 compared with lappaconitine (in words)” value [1] of the same compound?
Answer: same order of magnitude as that of lappaconitine

Question: What about the inhibition in vivo at 10 mg/kg [2] of the same compound?
Answer: 84.3 ± 3.05%

Question: What about the “analgesic activity (in words, Table 1)” value [2] of the same compound?
Answer: significant activity

Question: What about the LD50 [3] of the same compound?
Answer: > 600 mg/kg

Question: Which results are given for `CCN1C[C@]2(OC(=O)c3ccccc3NS(=O)(=O)c3ccccc3OC)CC[C@H](OC)C34C2CC([C@@H]13)[C@@]1(O)C[C@H](OC)[C@H]2CC4[C@]1(O)[C@H]2OC` (some centres unmarked) [Compound 2]?
Answer: ED50 [1, 5]: 5.5 mg/kg; analgesic activity / ED50 compared with lappaconitine (in words) [1]: same order of magnitude as that of lappaconitine; inhibition in vivo at 10 mg/kg [2]: 71.2 ± 3.8%; analgesic activity (in words, Table 1) [2]: significant activity; LD50 [3]: 300 mg/kg

Question: Which results are given for `CCN1C[C@]2(OC(=O)c3ccccc3NS(=O)(=O)c3ccccn3)CC[C@H](OC)C34C2CC([C@@H]13)[C@@]1(O)C[C@H](OC)[C@H]2CC4[C@]1(O)[C@H]2OC` (some centres unmarked) [Compound 3]?
Answer: ED50 [1, 5]: 4.7 mg/kg; analgesic activity / ED50 compared with lappaconitine (in words) [1]: same order of magnitude as that of lappaconitine; inhibition in vivo at 10 mg/kg [2]: 71.2 ± 2.72%; analgesic activity (in words, Table 1) [2]: significant activity; LD50 [3]: > 400 mg/kg

Question: Which ED50 [1, 5] does the source give for `CCN1C[C@]2(OC(=O)c3ccccc3NC(=O)OC)CC[C@H](OC)C34C2CC([C@@H]13)[C@@]1(O)C[C@H](OC)[C@H]2CC4[C@]1(O)[C@H]2OC` (some centres unmarked) [Compound 4] here?
Answer: 1.2 mg/kg

Question: What about the “analgesic activity / ED50 compared with lappaconitine (in words)” value [1] of the same compound?
Answer: doubled compared with lappaconitine

Question: And the inhibition in vivo at 10 mg/kg [2]?
Answer: 71.1 ± 5.97%

Question: And the “analgesic activity (in words, Table 1)” value [2]?
Answer: significant activity

Question: And the “toxicity compared with lappaconitine (in words)” value ([4]; comment on Table 2)?
Answer: did not increase significantly

Question: And the LD50 [3]?
Answer: 10 mg/kg

Question: With `CCN1C[C@]2(OC(=O)c3ccccc3NC(=O)c3ccc(N(C)C)cc3)CC[C@H](OC)C34C2CC([C@@H]13)[C@@]1(O)C[C@H](OC)[C@H]2CC4[C@]1(O)[C@H]2OC` (some centres unmarked) [Compound 5] as the compound, how does the ED50 [1, 5] read?
Answer: 6.1 mg/kg

Question: And the “analgesic activity / ED50 compared with lappaconitine (in words)” value [1]?
Answer: same order of magnitude as that of lappaconitine

Question: And the inhibition in vivo at 10 mg/kg [2]?
Answer: 62.1 ± 5.02%

Question: What about the “analgesic activity (in words, Table 1)” value [2] of the same compound?
Answer: significant activity

Question: And the LD50 [3]?
Answer: 300 mg/kg

Question: Which ED50 [1, 5] does the source give for `CCN(CC)c1ccc(C(=O)Nc2ccccc2C(=O)O[C@@]23CC[C@H](OC)C45C2CC([C@H]4N(CC)C3)[C@@]2(O)C[C@H](OC)[C@H]3CC5[C@]2(O)[C@H]3OC)cc1` (some centres unmarked) [Compound 30] here?
Answer: 7.5 mg/kg

Question: And the “analgesic activity / ED50 compared with lappaconitine (in words)” value [1]?
Answer: same order of magnitude as that of lappaconitine

Question: What about the inhibition in vivo at 10 mg/kg [2] of the same compound?
Answer: 63.9 ± 5.09%

Question: And the “analgesic activity (in words, Table 1)” value [2]?
Answer: significant activity

Question: What about the LD50 [3] of the same compound?
Answer: 276 mg/kg

Question: For `CCOc1ccc(C(=O)Nc2ccccc2C(=O)O[C@@]23CC[C@H](OC)C45C2CC([C@H]4N(CC)C3)[C@@]2(O)C[C@H](OC)[C@H]3CC5[C@]2(O)[C@H]3OC)cc1` (some centres unmarked) [Compound 31], which ED50 [1, 5] is on record?
Answer: 6.6 mg/kg

Question: What about the “analgesic activity / ED50 compared with lappaconitine (in words)” value [1] of the same compound?
Answer: same order of magnitude as that of lappaconitine

Question: What about the inhibition in vivo at 10 mg/kg [2] of the same compound?
Answer: 62.8 ± 5.41%

Question: And the “analgesic activity (in words, Table 1)” value [2]?
Answer: significant activity

Question: And the LD50 [3]?
Answer: 315 mg/kg

Question: Which ED50 [1, 5] does the source give for `CCN1C[C@]2(OC(=O)c3ccccc3NC(=O)c3ccc(OC)cc3)CC[C@H](OC)C34C2CC([C@@H]13)[C@@]1(O)C[C@H](OC)[C@H]2CC4[C@]1(O)[C@H]2OC` (some centres unmarked) [Compound 32] here?
Answer: 4.4 mg/kg

Question: What about the “analgesic activity / ED50 compared with lappaconitine (in words)” value [1] of the same compound?
Answer: same order of magnitude as that of lappaconitine

Question: And the inhibition in vivo at 10 mg/kg [2]?
Answer: 62.8 ± 5.77%

Question: What about the “analgesic activity (in words, Table 1)” value [2] of the same compound?
Answer: significant activity

Question: And the LD50 [3]?
Answer: 296 mg/kg

Question: Which inhibition in vivo at 10 mg/kg [2, 6] does the source give for `CCN1C[C@]2(OC(=O)c3ccccc3NC(=O)c3ccc(Cl)s3)CC[C@H](OC)C3C2C[C@@H]([C@@H]1C)[C@@]1(O)CC(OC)[C@H]2CC3[C@]1(O)[C@H]2OC` (some centres unmarked) [Compound 45] here?
Answer: 27.8 ± 5.83%

Question: Which inhibition in vivo at 10 mg/kg [2, 6] does the source give for `CCc1ccc(C(=O)Nc2ccccc2C(=O)O[C@@]23CC[C@H](OC)C4C2C[C@@H]([C@H](C)N(CC)C3)[C@@]2(O)CC(OC)[C@H]3CC4[C@]2(O)[C@H]3OC)cc1` (some centres unmarked) [Compound 46] here?
Answer: 26.7 ± 7.95%

Question: With `CCN1C[C@]2(OC(=O)c3ccccc3NC(=O)CC(C)(C)C)CC[C@H](OC)C3C2C[C@@H]([C@@H]1C)[C@@]1(O)CC(OC)[C@H]2CC3[C@]1(O)[C@H]2OC` (some centres unmarked) [Compound 47] as the compound, how does the inhibition in vivo at 10 mg/kg [2, 6] read?
Answer: 24.9 ± 9.7%

Question: For `CCN1C[C@]2(OC(=O)c3ccccc3NC(=O)C3CCCO3)CC[C@H](OC)C3C2C[C@@H]([C@@H]1C)[C@@]1(O)CC(OC)[C@H]2CC3[C@]1(O)[C@H]2OC` (some centres unmarked) [Compound 48], which inhibition in vivo at 10 mg/kg [2, 6] is on record?
Answer: 21.8 ± 12.6%

Question: With `CCN1C[C@]2(OC(=O)c3ccccc3NC(=O)c3ccc(C(C)C)cc3)CC[C@H](OC)C3C2C[C@@H]([C@@H]1C)[C@@]1(O)CC(OC)[C@H]2CC3[C@]1(O)[C@H]2OC` (some centres unmarked) [Compound 49] as the compound, how does the inhibition in vivo at 10 mg/kg [2, 6] read?
Answer: 21 ± 6.58%

Question: Which inhibition in vivo at 10 mg/kg [2, 6] does the source give for `CCN1C[C@]2(OC(=O)c3ccccc3NC(=O)C3CCOCC3)CC[C@H](OC)C3C2C[C@@H]([C@@H]1C)[C@@]1(O)CC(OC)[C@H]2CC3[C@]1(O)[C@H]2OC` (some centres unmarked) [Compound 50] here?
Answer: 16.4 ± 8.07%

Question: Which results are given for `CCN1C[C@]2(OC(=O)c3ccccc3NC(=O)c3ccc(OC(C)C)cc3)CC[C@H](OC)[C@]34C1[C@H](CC23)[C@@]1(O)C[C@H](OC)[C@H]2CC4[C@]1(O)[C@H]2OC` (some centres unmarked) [Compound 59]?
Answer: ED50 [1, 5]: 8.1 mg/kg; analgesic activity / ED50 compared with lappaconitine (in words) [1]: same order of magnitude as that of lappaconitine; inhibition in vivo at 10 mg/kg [2]: 61.1 ± 5.52%; analgesic activity (in words, Table 1) [2]: significant activity; LD50 [3]: 196 mg/kg

Question: Which results are given for `CCN1C[C@]2(OC(=O)c3ccccc3NC(C)=O)CC[C@H](OC)[C@@]34[C@@H]2C[C@@H]([C@@H]13)[C@@]1(O)C[C@H](OC)[C@H]2C[C@@H]4[C@]1(O)[C@H]2OC` [Lappaconitine]?
Answer: ED50 [1]: 3.5 mg/kg; Analgesia rate ± SEM (%) ([2]; Dosing concentration 3.5 mg/kg, subcutaneous, 15 min before i.p. 0.7% acetic acid, writhing inhibition vs blank group): 56.57 ± 6.57 %; experimental animal death from poisoning ([2]; dosing concentration of 10 mg/kg): more than half of the experimental animal death from poisoning; LD50 ([4]; subcutaneous, survival within 24 h, Probit regression): 11.7 mg/kg

Reference: patent US11840517B2, “Lappaconitine derivative with analgesic activity, and preparation and application thereof” (priority 2021, dated 2023)
